Assay results taken from ChEMBL document CHEMBL5465560, “Selectivity Literature for EUbOPEN Chemogenomic Library” (2024).

What was measured:
[1] = biological target: Serine/threonine-protein kinase Nek7 (Homo sapiens) (UniProt Q8TDX7); conditions: at 10 µM
[2] = biological target: Phosphatidylinositol 3-kinase catalytic subunit type 3 (Homo sapiens, UniProt Q8NEB9); test: Selectivity interaction (KinomeScan (DiscoverX)) EUB0000229b PIK3C3; conditions: at 10 µM
[3] = biological target: CDK4/Cyclin D3 (Homo sapiens) (UniProt P11802+P30281); test: (§1) Selectivity interaction (KinomeScan (DiscoverX)) EUB0000229b CDK4; format: protein-complex assay; conditions: at 10 µM
[4] = biological target: Cyclin-dependent kinase 4/cyclin D1 (Homo sapiens) (UniProt P11802+P24385); test: as §1; format: protein-complex assay; conditions: at 10 µM
[5] = biological target: Serine/threonine-protein kinase/endoribonuclease IRE1 (Homo sapiens) (UniProt O75460); test: Selectivity interaction (KinomeScan (DiscoverX)) EUB0000655a ERN1; conditions: at 10 µM
Sequence of Serine/threonine-protein kinase/endoribonuclease IRE1 (Homo sapiens) (O75460 19-977 limits assumed): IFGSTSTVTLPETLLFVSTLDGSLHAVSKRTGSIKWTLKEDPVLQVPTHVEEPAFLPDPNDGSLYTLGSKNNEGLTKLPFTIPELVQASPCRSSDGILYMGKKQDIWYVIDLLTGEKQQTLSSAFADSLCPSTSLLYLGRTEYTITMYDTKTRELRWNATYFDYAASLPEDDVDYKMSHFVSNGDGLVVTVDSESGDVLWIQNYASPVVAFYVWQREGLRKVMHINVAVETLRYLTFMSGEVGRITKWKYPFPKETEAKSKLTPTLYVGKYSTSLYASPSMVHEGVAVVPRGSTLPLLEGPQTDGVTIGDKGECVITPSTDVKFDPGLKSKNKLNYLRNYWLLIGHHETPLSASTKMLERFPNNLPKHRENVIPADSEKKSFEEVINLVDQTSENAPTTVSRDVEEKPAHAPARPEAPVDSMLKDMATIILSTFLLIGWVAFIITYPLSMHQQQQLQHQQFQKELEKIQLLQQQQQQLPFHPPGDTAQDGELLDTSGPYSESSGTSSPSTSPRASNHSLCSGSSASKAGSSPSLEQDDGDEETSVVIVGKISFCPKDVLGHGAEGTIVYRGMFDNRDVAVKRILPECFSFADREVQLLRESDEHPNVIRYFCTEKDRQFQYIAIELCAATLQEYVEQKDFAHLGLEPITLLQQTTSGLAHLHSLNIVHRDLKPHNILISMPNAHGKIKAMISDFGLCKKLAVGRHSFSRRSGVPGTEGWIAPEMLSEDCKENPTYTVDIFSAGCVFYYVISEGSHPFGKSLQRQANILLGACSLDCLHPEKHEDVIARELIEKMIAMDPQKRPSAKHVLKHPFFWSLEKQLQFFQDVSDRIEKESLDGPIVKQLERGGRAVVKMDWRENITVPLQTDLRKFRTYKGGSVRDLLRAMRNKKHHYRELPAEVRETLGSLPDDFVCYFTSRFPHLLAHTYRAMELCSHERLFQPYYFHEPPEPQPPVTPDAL

[6] = biological target: T1, Calcium/calmodulin-dependent protein kinase type IV (Homo sapiens) (UniProt Q16566); test: Selectivity interaction (Kinase panel (DSF assay)) EUB0001559a CAMK4
T1 sequence (whole entry): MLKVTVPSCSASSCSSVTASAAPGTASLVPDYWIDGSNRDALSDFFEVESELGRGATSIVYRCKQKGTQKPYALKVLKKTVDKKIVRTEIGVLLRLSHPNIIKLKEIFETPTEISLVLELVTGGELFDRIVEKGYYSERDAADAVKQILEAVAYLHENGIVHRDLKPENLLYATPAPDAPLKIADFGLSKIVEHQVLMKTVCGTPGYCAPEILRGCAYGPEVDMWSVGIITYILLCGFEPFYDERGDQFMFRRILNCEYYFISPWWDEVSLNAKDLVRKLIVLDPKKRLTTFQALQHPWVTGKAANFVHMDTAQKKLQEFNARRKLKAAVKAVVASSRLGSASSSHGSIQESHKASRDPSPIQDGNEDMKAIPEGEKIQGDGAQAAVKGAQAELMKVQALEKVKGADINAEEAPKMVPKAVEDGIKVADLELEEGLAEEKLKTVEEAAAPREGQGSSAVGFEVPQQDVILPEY

[7] = biological target: T2, Serine/threonine-protein kinase TAO3 (Homo sapiens) (UniProt Q9H2K8); conditions: at 10 µM
T2 sequence (whole entry): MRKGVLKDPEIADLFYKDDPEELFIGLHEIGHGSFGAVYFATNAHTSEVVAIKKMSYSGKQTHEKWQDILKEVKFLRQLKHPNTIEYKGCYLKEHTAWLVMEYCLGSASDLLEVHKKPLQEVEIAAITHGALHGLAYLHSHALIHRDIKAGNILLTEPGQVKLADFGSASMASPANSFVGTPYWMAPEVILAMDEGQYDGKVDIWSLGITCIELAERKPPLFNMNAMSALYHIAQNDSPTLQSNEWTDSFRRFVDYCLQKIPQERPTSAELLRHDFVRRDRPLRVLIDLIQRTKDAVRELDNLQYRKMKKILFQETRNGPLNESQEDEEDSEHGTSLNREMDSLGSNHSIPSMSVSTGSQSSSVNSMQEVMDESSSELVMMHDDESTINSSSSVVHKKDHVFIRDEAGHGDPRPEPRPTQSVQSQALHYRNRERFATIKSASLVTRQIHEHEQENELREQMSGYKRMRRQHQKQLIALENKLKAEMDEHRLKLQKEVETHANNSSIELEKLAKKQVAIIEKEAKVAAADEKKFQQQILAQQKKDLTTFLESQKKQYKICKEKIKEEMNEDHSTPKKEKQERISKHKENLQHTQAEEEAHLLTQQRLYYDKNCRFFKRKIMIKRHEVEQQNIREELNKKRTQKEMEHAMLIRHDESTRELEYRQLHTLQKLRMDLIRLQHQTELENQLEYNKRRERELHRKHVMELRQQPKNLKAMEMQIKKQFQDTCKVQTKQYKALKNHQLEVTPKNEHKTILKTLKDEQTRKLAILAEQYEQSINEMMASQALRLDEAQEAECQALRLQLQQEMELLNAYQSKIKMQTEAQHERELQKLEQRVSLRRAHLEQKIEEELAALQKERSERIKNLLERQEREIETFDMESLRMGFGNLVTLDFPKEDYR

[8] = biological target: Calcium/calmodulin-dependent protein kinase type II subunit beta (Homo sapiens) (UniProt Q13554); test: Selectivity interaction (ActivX KiNativ screen (kinase selectivity in THP-1 cell lysates)) EUB0000639a CAMK2B; format: subcellular; conditions: lysate, at 1 µM
Sequence of Calcium/calmodulin-dependent protein kinase type II subunit beta (Homo sapiens) (Q13554 whole entry): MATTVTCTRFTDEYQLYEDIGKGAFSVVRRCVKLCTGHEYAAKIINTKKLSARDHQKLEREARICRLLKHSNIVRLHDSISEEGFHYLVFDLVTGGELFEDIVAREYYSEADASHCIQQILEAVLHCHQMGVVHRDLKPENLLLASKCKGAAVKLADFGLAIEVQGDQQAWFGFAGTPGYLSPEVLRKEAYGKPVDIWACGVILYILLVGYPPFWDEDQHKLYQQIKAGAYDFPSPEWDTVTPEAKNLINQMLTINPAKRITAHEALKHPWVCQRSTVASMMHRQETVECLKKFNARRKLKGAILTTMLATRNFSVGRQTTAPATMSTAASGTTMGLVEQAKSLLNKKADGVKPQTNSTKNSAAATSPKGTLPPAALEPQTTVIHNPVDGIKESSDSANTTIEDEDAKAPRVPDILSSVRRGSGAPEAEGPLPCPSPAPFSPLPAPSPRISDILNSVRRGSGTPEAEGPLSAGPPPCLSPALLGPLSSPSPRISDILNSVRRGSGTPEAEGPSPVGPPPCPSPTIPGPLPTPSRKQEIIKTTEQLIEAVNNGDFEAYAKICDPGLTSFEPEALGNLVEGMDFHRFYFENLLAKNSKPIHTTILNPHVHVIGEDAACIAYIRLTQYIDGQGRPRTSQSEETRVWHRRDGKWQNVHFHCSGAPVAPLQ

[9] = biological target: Phosphatidylinositol 4-phosphate 5-kinase type-1 alpha (Homo sapiens) (UniProt Q99755); test: Selectivity interaction (KinomeScan (DiscoverX)) EUB0001049a PIP5K1A; conditions: at 1 µM
Sequence of Phosphatidylinositol 4-phosphate 5-kinase type-1 alpha (Homo sapiens) (Q99755 whole entry): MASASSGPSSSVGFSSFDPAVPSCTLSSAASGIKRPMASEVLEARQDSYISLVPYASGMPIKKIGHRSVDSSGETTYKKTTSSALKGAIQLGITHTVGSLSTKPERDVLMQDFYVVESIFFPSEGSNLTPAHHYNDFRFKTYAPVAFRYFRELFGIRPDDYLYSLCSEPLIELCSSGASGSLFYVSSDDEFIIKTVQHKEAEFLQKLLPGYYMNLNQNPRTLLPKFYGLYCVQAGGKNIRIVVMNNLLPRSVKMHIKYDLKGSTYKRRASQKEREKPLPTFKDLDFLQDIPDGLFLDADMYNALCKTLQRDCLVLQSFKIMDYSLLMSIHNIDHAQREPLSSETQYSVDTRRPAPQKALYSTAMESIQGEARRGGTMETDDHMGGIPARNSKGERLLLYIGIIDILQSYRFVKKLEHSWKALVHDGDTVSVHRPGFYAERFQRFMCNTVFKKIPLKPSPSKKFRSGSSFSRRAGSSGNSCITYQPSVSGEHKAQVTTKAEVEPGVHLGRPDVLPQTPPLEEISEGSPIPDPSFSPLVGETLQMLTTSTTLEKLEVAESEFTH

[10] = biological target: T3, Muscarinic acetylcholine receptor M1 (Homo sapiens) (UniProt P11229); test: Selectivity interaction (Panel of non-epigenetic targets (kinases, GPCRs, ion channels, and transporters, Eurofins) ) EUB0000271b CHRM1; conditions: at 1 µM
T3 sequence (whole entry): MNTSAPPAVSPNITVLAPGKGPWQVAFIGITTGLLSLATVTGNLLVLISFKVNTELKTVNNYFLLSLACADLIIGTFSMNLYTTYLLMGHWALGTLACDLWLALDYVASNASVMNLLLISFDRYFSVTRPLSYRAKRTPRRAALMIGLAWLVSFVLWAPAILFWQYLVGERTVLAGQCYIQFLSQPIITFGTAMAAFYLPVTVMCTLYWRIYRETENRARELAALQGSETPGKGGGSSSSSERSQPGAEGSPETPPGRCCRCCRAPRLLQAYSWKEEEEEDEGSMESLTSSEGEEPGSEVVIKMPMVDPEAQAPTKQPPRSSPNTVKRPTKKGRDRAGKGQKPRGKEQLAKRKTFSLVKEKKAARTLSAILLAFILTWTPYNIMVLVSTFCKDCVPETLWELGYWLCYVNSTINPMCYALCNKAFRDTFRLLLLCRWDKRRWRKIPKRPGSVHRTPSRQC

[11] = biological target: Serine/threonine-protein kinase PAK 1 (Homo sapiens) (UniProt Q13153); test: Selectivity interaction (KinomeScan (DiscoverX)) EUB0000618a PAK1; conditions: at 10 µM
Sequence of Serine/threonine-protein kinase PAK 1 (Homo sapiens) (Q13153 whole entry): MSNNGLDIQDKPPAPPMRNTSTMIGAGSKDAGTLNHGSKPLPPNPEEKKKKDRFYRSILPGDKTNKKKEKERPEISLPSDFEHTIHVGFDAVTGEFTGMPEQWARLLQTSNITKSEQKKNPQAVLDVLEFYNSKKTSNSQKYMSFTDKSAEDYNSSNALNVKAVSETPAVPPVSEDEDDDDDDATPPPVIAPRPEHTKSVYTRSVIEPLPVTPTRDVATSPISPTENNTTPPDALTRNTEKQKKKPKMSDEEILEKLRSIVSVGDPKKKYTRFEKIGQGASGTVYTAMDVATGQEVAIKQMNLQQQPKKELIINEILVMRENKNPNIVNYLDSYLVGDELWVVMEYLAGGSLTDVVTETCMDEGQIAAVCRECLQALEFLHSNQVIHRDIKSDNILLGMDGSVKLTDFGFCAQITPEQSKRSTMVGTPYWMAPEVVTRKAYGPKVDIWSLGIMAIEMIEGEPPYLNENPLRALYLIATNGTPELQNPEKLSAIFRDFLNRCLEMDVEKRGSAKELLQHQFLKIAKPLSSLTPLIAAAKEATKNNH

Sequence of Serine/threonine-protein kinase Nek7 (Homo sapiens) (Q8TDX7 whole entry, looked up): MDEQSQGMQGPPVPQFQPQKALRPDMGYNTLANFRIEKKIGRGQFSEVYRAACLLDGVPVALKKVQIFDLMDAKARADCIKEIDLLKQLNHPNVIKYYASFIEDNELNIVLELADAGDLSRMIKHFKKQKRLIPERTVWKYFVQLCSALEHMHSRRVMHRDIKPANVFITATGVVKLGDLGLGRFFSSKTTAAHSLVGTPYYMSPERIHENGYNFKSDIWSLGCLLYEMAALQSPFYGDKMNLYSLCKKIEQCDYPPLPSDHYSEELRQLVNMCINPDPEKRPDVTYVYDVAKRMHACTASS
Sequence of Phosphatidylinositol 3-kinase catalytic subunit type 3 (Q8NEB9 whole entry): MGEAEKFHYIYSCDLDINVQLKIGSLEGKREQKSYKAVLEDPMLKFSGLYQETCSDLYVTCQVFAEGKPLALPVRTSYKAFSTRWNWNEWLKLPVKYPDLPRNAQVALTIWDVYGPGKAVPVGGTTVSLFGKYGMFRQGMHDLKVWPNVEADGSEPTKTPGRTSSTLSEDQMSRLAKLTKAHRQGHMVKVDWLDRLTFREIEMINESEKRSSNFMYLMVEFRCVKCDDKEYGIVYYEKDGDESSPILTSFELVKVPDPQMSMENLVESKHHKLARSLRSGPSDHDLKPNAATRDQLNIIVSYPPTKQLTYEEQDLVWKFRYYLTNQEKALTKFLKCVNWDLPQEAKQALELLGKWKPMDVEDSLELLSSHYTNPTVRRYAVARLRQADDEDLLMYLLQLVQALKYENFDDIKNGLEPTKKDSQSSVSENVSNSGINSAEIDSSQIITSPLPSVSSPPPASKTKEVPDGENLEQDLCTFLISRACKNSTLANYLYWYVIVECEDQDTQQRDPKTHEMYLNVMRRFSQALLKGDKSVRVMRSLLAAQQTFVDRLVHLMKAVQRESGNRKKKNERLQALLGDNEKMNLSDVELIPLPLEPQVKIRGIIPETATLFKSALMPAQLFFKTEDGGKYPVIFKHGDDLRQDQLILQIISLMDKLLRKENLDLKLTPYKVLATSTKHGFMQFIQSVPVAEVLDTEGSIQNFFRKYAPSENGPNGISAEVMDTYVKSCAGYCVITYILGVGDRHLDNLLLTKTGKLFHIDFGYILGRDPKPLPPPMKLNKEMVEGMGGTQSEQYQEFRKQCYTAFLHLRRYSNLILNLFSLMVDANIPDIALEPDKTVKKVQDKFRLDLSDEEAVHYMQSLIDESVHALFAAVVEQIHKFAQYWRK

SMILES: CCN(CC)CCCCNc1ncc2cc(-c3cc(OC)cc(OC)c3)c(NC(=O)NC(C)(C)C)nc2n1
- % of control [1]: 100%

SMILES: COc1cc(N(C)c2ccnc3ccc(C(F)(F)F)cc23)cc(OC)c1OC
- % binding [2]: 93%
- % binding [3]: 94%
- % binding [4]: 99%

SMILES: CN(C)CCOc1ccc(-c2nc(-c3ccncc3)c(-c3ccc4c(c3)CC/C4=N\O)[nH]2)cc1
- % of control [5]: 62%

SMILES: CN(C(=O)c1cnn2cccnc12)c1cc2c(cc1N1CCOCC1)C(=O)N(C[C@@H](F)C(C)(C)O)C2
- dTM [6]: -0.4 K

SMILES: Cc1cc([C@@H](C)Nc2ccccc2C(=O)O)c2nc(N3CCOCC3)cc(=O)n2c1 [AZD-6482]
- % of control [7]: 100%

SMILES: CC[C@@H]1[C@H](F)C(=O)N[C@@H]1COc1nccc2cc(C(N)=O)c(OC)cc12 [ZIMLOVISERTIB]
- % of inhibition [8]: 10%

SMILES: COc1cc(Nc2nc(C)cc(-c3cnn4nc(OC)ccc34)n2)cc(C(F)(F)F)c1
- % of control [9]: 81%

SMILES: Cc1cc(C)cc([C@@H]2c3cc(C)ccc3NC(=O)CN2C(=O)c2ccc(Br)s2)c1
- % of inhibition [10]: -2%

SMILES: O[C@H]1CC[C@H](Nc2ncc3nc(Nc4c(F)cc(F)cc4F)n([C@H]4CCOC4)c3n2)CC1
- % of control [11]: 99%
